Measured values published in patent US9499509B2, “Dihydrochalcone derivatives and their use as antibiotic agents” (UNIVERSITÉ DU QUÉBEC À CHICOUTIMI, priority 2012, dated 2016).
Converted amounts (≈) assume the structure as drawn.

Experiments:
MRSA strains = assay: Antibiotic assay (absorption 660 nm, Example 2), MRSA strains; assay type: cell-based, Staphylococcus aureus
Method: (§1) Antibiotic agents. Gentamicin sulfate was provided by Calbiochem. Chloramphenicol was provided by Sigma-Aldrich.
(§2) Antibiotic assay. […] The bacteria strains were inoculated in nutrients broth. […] All bacteria were plated in nutrients broth at a concentration of 450 000 bacteria/m L.
(§3) Compounds IV to XXI were diluted in dimethylsulfoxide. […] The compounds were tested at 8 different concentrations.
(§4) Each well contained: 100 μL of bacteria, 100 μL of the compounds tested. The plates were incubated at 37° C. for 6 h. The absorption was read using a Varioskan flash multimode Reader™ (Thermo Scientific) at 660 nm.
(§5) MRSA. Ten (10) strains of MRSA obtained as described above were tested along with an S. aureus wild type (WT) strain (ATCC 25923).

[1] = tested on: S. aureus wild type strain (ATCC 25923); assay: Antibiotic assay (absorption 660 nm, Example 2), S. aureus wild type; assay type: cell-based, Staphylococcus aureus; conditions: for MIC: S. aureus WT (ATCC 25923); for S. aureus WT ATCC 25923 (toxicity on bacteria): Table 7, same values as MIC of Table 6
Method: as §1, §2, §3, §4, §5

WS-1 cell lines = assay: Cytotoxicity assay on WS-1 (Example 2); assay type: cell-based; set-up: unit not given here; conditions: Table 7; WS-1, 48 h
Method: Cytotoxicity assay. […] The WS-1 cell lines were provided by ATCC. […] The compounds tested were then added at 8 different concentrations. […] In Table 7, the therapeutic indexes of compounds IV to XXI are presented.

MIC (MRSA strains; MRSA 1) [µM]	MIC (MRSA strains; MRSA 2) [µM]	MIC (MRSA strains; MRSA 3) [µM]	MIC (MRSA strains; MRSA 4) [µM]	MIC (MRSA strains; MRSA 5) [µM]	MIC (MRSA strains; MRSA 6) [µM]	MIC (MRSA strains; MRSA 7) [µM]	MIC (MRSA strains; MRSA 8) [µM]	MIC (MRSA strains; MRSA 9) [µM]	MIC (MRSA strains; MRSA 10) [µM]	MIC [1] [µM]	SMILES	S. aureus WT ATCC 25923 (toxicity on bacteria) [1]	WS-1 (toxicity on normal cells, fibroblast) (WS-1 cell lines)
>50	>50	>50	>50	>50	>50	>50	>50	>50	>50	>50	COc1ccc(CCC(=O)c2c(O)cc(O)c3c2O[C@H](c2ccc(O)cc2)CC3)cc1 [VIII]	>50	>50
3.5 ± 0.1 (≈ 1.37 µg/mL)	2.9 ± 0.2 (≈ 1.13 µg/mL)	3.8 ± 0.3 (≈ 1.48 µg/mL)	5.2 ± 0.4 (≈ 2.03 µg/mL)	4.9 ± 0.6 (≈ 1.91 µg/mL)	14.2 ± 0.9 (≈ 5.54 µg/mL)	3.4 ± 0.2 (≈ 1.33 µg/mL)	3.8 ± 0.3 (≈ 1.48 µg/mL)	4.7 ± 0.2 (≈ 1.84 µg/mL)	4.65 ± 0.06 (≈ 1.82 µg/mL)	2.7 ± 0.3 (≈ 1.05 µg/mL)	O=C(CCc1ccccc1)c1c(O)cc(O)c2c1O[C@@H](c1ccc(O)cc1)CC2 [VI]	2.7 ± 0.3	>50
0.55 ± 0.07 (≈ 0.231 µg/mL)	0.65 ± 0.03 (≈ 0.273 µg/mL)	1.10 ± 0.07 (≈ 0.463 µg/mL)	0.64 ± 0.02 (≈ 0.269 µg/mL)	0.60 ± 0.01 (≈ 0.252 µg/mL)	0.76 ± 0.04 (≈ 0.32 µg/mL)	0.57 ± 0.06 (≈ 0.24 µg/mL)	0.641 ± 0.01 (≈ 0.27 µg/mL)	0.86 ± 0.03 (≈ 0.362 µg/mL)	0.7 ± 0.1 (≈ 0.294 µg/mL)	0.58 ± 0.02 (≈ 0.244 µg/mL)	COc1cc(O)c(C(=O)CCc2ccc(O)cc2)c2c1CC[C@H](c1ccc(O)cc1)O2 [XII]	0.58 ± 0.02	>50
21.9 ± 0.2 (≈ 8.9 µg/mL)	25 ± 2 (≈ 10.2 µg/mL)	18 ± 1 (≈ 7.32 µg/mL)	22 ± 2 (≈ 8.94 µg/mL)	20 ± 2 (≈ 8.13 µg/mL)	20 ± 3 (≈ 8.13 µg/mL)	18.5 ± 0.4 (≈ 7.52 µg/mL)	23.4 ± 1.0 (≈ 9.51 µg/mL)	20 ± 2 (≈ 8.13 µg/mL)	11.4 ± 0.6 (≈ 4.63 µg/mL)	10.9 ± 0.6 (≈ 4.43 µg/mL)	O=C(CCc1ccccc1)c1c(O)cc2c(c1O)CC(O)C(c1ccc(O)cc1)O2 (centres unmarked) [XIV]	10.9 ± 0.6	>50
<0.39	<0.39	<0.39	<0.39	<0.39	<0.39	<0.39	<0.39	<0.39	<0.39	<0.39	COc1cc(O)c(C(=O)CCc2ccc(O)cc2)c2c1CC[C@@H](c1ccc(O)cc1)O2 [XI]	<0.39	>50
12 ± 1 (≈ 4.88 µg/mL)	14 ± 1 (≈ 5.69 µg/mL)	15.9 ± 0.8 (≈ 6.46 µg/mL)	15 ± 1 (≈ 6.1 µg/mL)	11.5 ± 0.4 (≈ 4.67 µg/mL)	11 ± 2 (≈ 4.47 µg/mL)	7.5 ± 0.4 (≈ 3.05 µg/mL)	9.5 ± 1.0 (≈ 3.86 µg/mL)	13 ± 2 (≈ 5.28 µg/mL)	12 ± 1 (≈ 4.88 µg/mL)	9.9 ± 0.7 (≈ 4.02 µg/mL)	O=C(CCc1ccccc1)c1c(O)cc(O)c2c1OC(c1ccc(O)cc1)C(O)C2 (centres unmarked) [XVIII]	9.9 ± 0.7	>50
13 ± 1 (≈ 5.28 µg/mL)	12 ± 1 (≈ 4.88 µg/mL)	16.7 ± 0.5 (≈ 6.79 µg/mL)	15 ± 1 (≈ 6.1 µg/mL)	5.1 ± 0.2 (≈ 2.07 µg/mL)	6 ± 2 (≈ 2.44 µg/mL)	8.2 ± 0.7 (≈ 3.33 µg/mL)	10.2 ± 0.8 (≈ 4.15 µg/mL)	17 ± 1 (≈ 6.91 µg/mL)	17 ± 1 (≈ 6.91 µg/mL)	13.0 ± 0.8 (≈ 5.28 µg/mL)	O=C(CCc1ccccc1)c1c(O)cc(O)c2c1OC(c1ccc(O)cc1)C(O)C2 (centres unmarked) [XVII]	13.0 ± 0.8	>50
24.3 ± 0.9 (≈ 9.88 µg/mL)	27 ± 1 (≈ 11 µg/mL)	29 ± 3 (≈ 11.8 µg/mL)	22 ± 2 (≈ 8.94 µg/mL)	18 ± 2 (≈ 7.32 µg/mL)	18.9 ± 0.4 (≈ 7.68 µg/mL)	20 ± 1 (≈ 8.13 µg/mL)	17 ± 2 (≈ 6.91 µg/mL)	30 ± 1 (≈ 12.2 µg/mL)	7.8 ± 0.3 (≈ 3.17 µg/mL)	13 ± 1 (≈ 5.28 µg/mL)	O=C(CCc1ccccc1)c1c(O)cc2c(c1O)CC(O)C(c1ccc(O)cc1)O2 (centres unmarked) [XV]	13 ± 1	>50
17 ± 2 (≈ 7.42 µg/mL)	7 ± 2 (≈ 3.06 µg/mL)	8.5 ± 0.6 (≈ 3.71 µg/mL)	12.3 ± 0.5 (≈ 5.37 µg/mL)	7.7 ± 0.6 (≈ 3.36 µg/mL)	12 ± 1 (≈ 5.24 µg/mL)	11.4 ± 0.5 (≈ 4.98 µg/mL)	8.2 ± 0.2 (≈ 3.58 µg/mL)	10.8 ± 0.8 (≈ 4.71 µg/mL)	12 ± 1 (≈ 5.24 µg/mL)	28 ± 2 (≈ 12.2 µg/mL)	COc1ccc(CCC(=O)c2c(O)cc(O)c3c2OC(c2ccc(O)cc2)C(O)C3)cc1 (centres unmarked) [XXI]	28 ± 2	>50
14 ± 1 (≈ 6.11 µg/mL)	11.4 ± 0.5 (≈ 4.98 µg/mL)	8.9 ± 0.3 (≈ 3.88 µg/mL)	7.6 ± 0.2 (≈ 3.32 µg/mL)	3.8 ± 0.3 (≈ 1.66 µg/mL)	11.2 ± 1.0 (≈ 4.89 µg/mL)	12.1 ± 0.7 (≈ 5.28 µg/mL)	7.0 ± 1.0 (≈ 3.06 µg/mL)	12 ± 1 (≈ 5.24 µg/mL)	12.6 ± 0.3 (≈ 5.5 µg/mL)	14.0 ± 0.8 (≈ 6.11 µg/mL)	COc1ccc(CCC(=O)c2c(O)cc(O)c3c2OC(c2ccc(O)cc2)C(O)C3)cc1 (centres unmarked) [XX]	14.0 ± 0.8	>50

SMILES	MIC (MRSA strains; MRSA 1) [µM]	MIC (MRSA strains; MRSA 2) [µM]	MIC (MRSA strains; MRSA 3) [µM]	MIC (MRSA strains; MRSA 4) [µM]	MIC (MRSA strains; MRSA 5) [µM]	MIC (MRSA strains; MRSA 6) [µM]	MIC (MRSA strains; MRSA 7) [µM]	MIC (MRSA strains; MRSA 8) [µM]	MIC (MRSA strains; MRSA 9) [µM]	MIC (MRSA strains; MRSA 10) [µM]	MIC [1] [µM]	S. aureus WT ATCC 25923 (toxicity on bacteria) [1]	WS-1 (toxicity on normal cells, fibroblast) (WS-1 cell lines)
O=C(CCc1ccccc1)c1c(O)cc(O)c2c1O[C@H](c1ccc(O)cc1)CC2 [V]	4.1 ± 0.1 (≈ 1.6 µg/mL)	2.58 ± 0.10 (≈ 1.01 µg/mL)	3.8 ± 0.2 (≈ 1.48 µg/mL)	4.7 ± 0.4 (≈ 1.84 µg/mL)	4.4 ± 0.1 (≈ 1.72 µg/mL)	6.9 ± 0.4 (≈ 2.69 µg/mL)	3.0 ± 0.2 (≈ 1.17 µg/mL)	3.8 ± 0.4 (≈ 1.48 µg/mL)	6.2 ± 0.4 (≈ 2.42 µg/mL)	5.0 ± 0.3 (≈ 1.95 µg/mL)	2.5 ± 0.2 (≈ 0.976 µg/mL)	2.5 ± 0.2	>50
